In the assay the target is H1047R PIK3CA enzyme (Homo sapiens, UniProt P42336, H1047R). The assay is described as follows: ADP-Glo Biochemical PIK3CA Kinase Assay. The method, then:
Compounds to be assayed were plated in 16 doses of 1:2 serial dilutions (20 nL volume each well) on a 1536-well plate, and the plate warmed to room temperature. […] To the well was added 1 μL of 200 μM ATP and 20 μM of diC8-PIP2 in Substrate Assay Buffer (50 mM HEPES pH7.4, 50 mM NaCl, 5 mM DTT and 0.03% CHAPS) to start the reaction, and the plate was shaken for 10 seconds, then spun briefly at 1500 rpm, and then incubated for 60 minutes at room temperature. The reaction was stopped by adding 2 μL of ADP-Glo reagent (Promega), and spinning briefly at 1500 rpm, and then incubating for 40 minutes. ADP-Glo Detection reagent (Promega) was added and the plate spun briefly at 1500 rpm, then incubated for 30 minutes.
(In general: In ADP-Glo the light output rises with the ADP produced.)
Sequence of H1047R PIK3CA enzyme (P42336 whole entry H1047R): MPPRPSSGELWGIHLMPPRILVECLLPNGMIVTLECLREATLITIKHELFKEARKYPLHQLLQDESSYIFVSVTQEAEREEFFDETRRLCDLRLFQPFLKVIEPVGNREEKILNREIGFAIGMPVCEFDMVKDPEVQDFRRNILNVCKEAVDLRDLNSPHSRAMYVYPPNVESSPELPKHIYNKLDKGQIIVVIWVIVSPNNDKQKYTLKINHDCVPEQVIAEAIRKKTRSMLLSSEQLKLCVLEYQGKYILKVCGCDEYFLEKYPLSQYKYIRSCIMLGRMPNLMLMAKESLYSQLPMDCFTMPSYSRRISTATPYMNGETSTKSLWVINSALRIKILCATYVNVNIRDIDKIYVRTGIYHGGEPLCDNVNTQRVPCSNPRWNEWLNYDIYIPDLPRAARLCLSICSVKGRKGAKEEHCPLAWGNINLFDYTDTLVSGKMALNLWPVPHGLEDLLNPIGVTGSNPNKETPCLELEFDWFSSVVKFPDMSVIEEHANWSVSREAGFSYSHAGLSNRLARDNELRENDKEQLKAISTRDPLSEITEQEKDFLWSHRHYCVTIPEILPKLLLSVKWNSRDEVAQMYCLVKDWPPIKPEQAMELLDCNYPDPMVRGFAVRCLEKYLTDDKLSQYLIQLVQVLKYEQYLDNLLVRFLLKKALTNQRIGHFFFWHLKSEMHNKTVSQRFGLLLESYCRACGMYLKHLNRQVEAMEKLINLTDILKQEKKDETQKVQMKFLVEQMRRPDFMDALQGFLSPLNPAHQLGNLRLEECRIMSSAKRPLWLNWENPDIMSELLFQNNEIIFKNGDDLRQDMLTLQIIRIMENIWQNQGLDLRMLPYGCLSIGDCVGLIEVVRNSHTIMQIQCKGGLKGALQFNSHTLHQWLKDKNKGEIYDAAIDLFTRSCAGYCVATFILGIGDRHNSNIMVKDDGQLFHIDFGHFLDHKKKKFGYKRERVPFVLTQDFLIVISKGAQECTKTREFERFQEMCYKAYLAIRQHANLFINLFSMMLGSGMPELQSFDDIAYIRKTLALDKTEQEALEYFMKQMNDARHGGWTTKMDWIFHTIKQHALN
Sequence of H1047R PIK3CA enzyme (P27986 whole entry partner): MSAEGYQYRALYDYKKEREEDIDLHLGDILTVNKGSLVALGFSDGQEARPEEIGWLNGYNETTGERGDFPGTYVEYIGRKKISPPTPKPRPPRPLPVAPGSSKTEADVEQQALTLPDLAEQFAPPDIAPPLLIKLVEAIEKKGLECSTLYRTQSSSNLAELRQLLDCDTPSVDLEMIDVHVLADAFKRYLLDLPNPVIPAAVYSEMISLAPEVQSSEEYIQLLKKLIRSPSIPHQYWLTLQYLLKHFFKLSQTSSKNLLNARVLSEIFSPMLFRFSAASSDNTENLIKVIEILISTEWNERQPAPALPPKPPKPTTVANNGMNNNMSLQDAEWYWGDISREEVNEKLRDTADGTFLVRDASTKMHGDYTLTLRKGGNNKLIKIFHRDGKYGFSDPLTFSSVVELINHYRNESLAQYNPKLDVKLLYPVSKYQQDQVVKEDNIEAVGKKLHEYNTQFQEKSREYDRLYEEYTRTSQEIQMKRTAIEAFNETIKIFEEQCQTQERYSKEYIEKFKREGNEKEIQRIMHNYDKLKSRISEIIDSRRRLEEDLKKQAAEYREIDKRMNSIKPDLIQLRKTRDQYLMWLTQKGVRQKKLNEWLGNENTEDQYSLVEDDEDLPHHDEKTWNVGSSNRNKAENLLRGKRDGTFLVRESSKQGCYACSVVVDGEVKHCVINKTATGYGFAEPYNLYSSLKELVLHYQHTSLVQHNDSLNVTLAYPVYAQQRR
In the case of `Cn1ccnc1-c1cc(NC(=O)c2cc(F)cc(C(F)(F)F)c2)c2c(c1)C(=O)NC2c1cc(F)ccc1Cl` (racemic) [Compound I-1193], the 50% inhibitory concentration (IC50) is 0.1 to 0.5 µM.
Next, `O=C(Nc1cc(O[C@H]2CC[C@H]2O)cc2c1C(c1cc(F)ccc1Cl)NC2=O)c1cc(F)cc(C(F)(F)F)c1` (mixture of isomers) [Compound I-1210]: at most 0.1 µM; `O=C(Nc1cc(OC2CCCOC2)cc2c1C(c1cc(F)ccc1Cl)NC2=O)c1cc(F)cc(C(F)(F)F)c1` (racemic) [Compound I-1239]: at most 0.1 µM; `N#CCC(O)c1cc(NC(=O)c2cc(F)cc(C(F)(F)F)c2)c2c(c1)C(=O)NC2c1cc(F)ccc1Cl` (racemic) [Compound I-1243]: at most 0.1 µM.
For `O=C(Nc1cc(C2CNCCS2(=O)=O)cc2c1C(c1cc(F)ccc1Cl)NC2=O)c1cc(F)cc(C(F)(F)F)c1` (racemic) [Compound I-1255], the IC50 was at most 0.1 µM.
`O=C(Nc1cc(O[C@H]2CC[C@@H]2O)cc2c1C(c1cc(F)ccc1Cl)NC2=O)c1cc(F)cc(C(F)(F)F)c1` (mixture of isomers) [Compound I-1289] yielded an IC50 of 0.1 to 0.5 µM.
`N#C[C@H]1C[C@@H](Oc2cc(NC(=O)c3cc(F)cc(C(F)(F)F)c3)c3c(c2)C(=O)NC3c2cc(F)ccc2Cl)C1` (mixture of isomers) [Compound I-1295] yielded an IC50 of at most 0.1 µM.
Consider `CC(C)(O)C(O)c1cc(NC(=O)c2cc(F)cc(C(F)(F)F)c2)c2c(c1)C(=O)NC2c1cc(F)ccc1Cl` (racemic) [Compound I-1307], for which the IC50 was 0.1 to 0.5 µM.
The value for `O=C(Nc1cc(OC2CN(C(=O)C(F)(F)F)C2)cc2c1C(c1cc(F)ccc1Cl)NC2=O)c1cc(F)cc(C(F)(F)F)c1` (racemic) [Compound I-1320] was 0.1 to 0.5 µM; that for `O=C(Nc1cc(C[n+]2ccccc2)cc2c1[C@H](c1cc(F)ccc1Cl)NC2=O)c1cc(F)cc(C(F)(F)F)c1` (racemic) [Compound I-1321] was at most 0.1 µM; that for `CC(=O)NCCOc1cc(NC(=O)c2cc(F)cc(C(F)(F)F)c2)c2c(c1)C(=O)NC2c1cc(F)ccc1Cl` (racemic) [Compound I-1322] was 0.1 to 0.5 µM.
Next, `CN1C(=O)CCC1COc1cc(NC(=O)c2cc(F)cc(C(F)(F)F)c2)c2c(c1)C(=O)NC2c1cc(F)ccc1Cl` (racemic) [Compound I-1347]: at most 0.1 µM.
As for `O=C(Nc1cc(OCC2CCO2)cc2c1C(c1cc(F)ccc1Cl)NC2=O)c1cc(F)cc(C(F)(F)F)c1` (racemic) [Compound I-1366], the IC50 is at most 0.1 µM.
`O=C(Nc1cc(OC[C@H]2CCCN2)cc2c1C(c1cc(F)ccc1Cl)NC2=O)c1cc(F)cc(C(F)(F)F)c1` (mixture of isomers) [Compound I-1457] showed an IC50 of 0.1 to 0.5 µM.
Next, `CC(c1cc(NC(=O)c2cc(F)cc(C(F)(F)F)c2)c2c(c1)C(=O)NC2c1cc(F)ccc1Cl)[S+](C)[O-]` (racemic) [Compound I-1472]: 0.1 to 0.5 µM.
Turning to `O=C(Nc1cc(NC(=O)c2cc(F)cc(C(F)(F)F)c2)c2c(c1)C(=O)N[C@@H]2c1cc(F)ccc1Cl)c1cccnc1` (racemic) [Compound I-1478], the IC50 lay within 0.1 to 0.5 µM.
`CSC(C)c1cc(NC(=O)c2cc(F)cc(C(F)(F)F)c2)c2c(c1)C(=O)NC2c1cc(F)ccc1Cl` (racemic) [Compound I-1490]: the IC50 is at most 0.1 µM.
Take `CS(=O)(=O)N1CCC[C@H](Oc2cc(NC(=O)c3cc(F)cc(C(F)(F)F)c3)c3c(c2)C(=O)NC3c2cc(F)ccc2Cl)C1` (mixture of isomers) [Compound I-1526]: the IC50 was in the range of 0.1 to 0.5 µM.
For the compound `O=C(Nc1cc(O[C@H]2CCCNC2)cc2c1C(c1cc(F)ccc1Cl)NC2=O)c1cc(F)cc(C(F)(F)F)c1` (mixture of isomers) [Compound I-1527], the IC50 lay in the range of 0.1 to 0.5 µM.
The value for `CC(C)(C#N)n1cc(-c2cc(NC(=O)c3cc(F)cc(C(F)(F)F)c3)c3c(c2)C(=O)N[C@H]3c2cc(F)ccc2Cl)cn1` (racemic) [Compound I-1661] was at most 0.1 µM; that for `CN1CC(c2cc(NC(=O)c3cc(F)cc(C(F)(F)F)c3)c3c(c2)C(=O)NC3c2cc(F)ccc2Cl)CC1=O` (racemic) [Compound I-1687] was at most 0.1 µM.
The value for `CN1CCCC[C@@H]1[C@@H]1NC(=O)c2cccc(NC(=O)c3cc(F)cc(C(F)(F)F)c3)c21` (racemic) [Compound I-1713] was 10 to 100 µM; that for `CN1CCCC[C@H]1[C@@H]1NC(=O)c2cccc(NC(=O)c3cc(F)cc(C(F)(F)F)c3)c21` (racemic) [Compound I-1733] was 10 to 100 µM.
The value for `CN1CCCC(C2NC(=O)c3cccc(NC(=O)c4cc(F)cc(C(F)(F)F)c4)c32)C1` (racemic) [Compound I-1769] was 10 to 100 µM.
For the compound `O=C(Nc1cccc2c1C(C1CCNCC1)NC2=O)c1cc(F)cc(C(F)(F)F)c1` (racemic) [Compound I-1770], the IC50 was in the range of 1 to 10 µM.
Next, `CC(=O)N1CCCC(C2NC(=O)c3cccc(NC(=O)c4cc(F)cc(C(F)(F)F)c4)c32)C1` (racemic) [Compound I-1771]: 10 to 100 µM; `O=C1N[C@@H](c2cc(F)ccc2Cl)c2c(NC(=O)[C@H]3CCCCN3)cc(-c3ccc4ncnn4c3)cc21` (racemic) [Compound I-1779]: 10 to 100 µM.
The value for `O=C1N[C@@H](c2cc(F)ccc2Cl)c2c(NC(=O)[C@@H]3CCCCN3)cc(-c3ccc4ncnn4c3)cc21` (racemic) [Compound I-1780] was 10 to 100 µM.
Take `O=C(Nc1cccc2c1C(C1=C(F)CCCC1)NC2=O)c1cc(F)cc(C(F)(F)F)c1` (racemic) [Compound I-1790]: the IC50 was 0.5 to 1 µM.
Next, `CC1(C2NC(=O)c3cccc(NC(=O)c4cc(F)cc(C(F)(F)F)c4)c32)CC1` (racemic) [Compound I-1791]: 10 to 100 µM; `CN1CC(C2NC(=O)c3cccc(NC(=O)c4cc(F)cc(C(F)(F)F)c4)c32)C1` (racemic) [Compound I-1832]: 10 to 100 µM.
The value for `O=C(Nc1cccc2c1[C@H](C1CCC(F)(F)CC1)NC2=O)c1cc(F)cc(C(F)(F)F)c1` (racemic) [Compound I-1836] was 10 to 100 µM; that for `CC(=O)N[C@@H]1CCC[C@H](C(=O)Nc2cc(-c3ccc4ncnn4c3)cc3c2C(c2cc(F)ccc2Cl)NC3=O)C1` (mixture of isomers) [Compound I-1842] was 10 to 100 µM; that for `CC(=O)N[C@H]1CCC[C@H](C(=O)Nc2cc(-c3ccc4ncnn4c3)cc3c2C(c2cc(F)ccc2Cl)NC3=O)C1` (mixture of isomers) [Compound I-1843] was 10 to 100 µM.
The value for `N[C@@H]1CCC[C@H](C(=O)Nc2cc(-c3ccc4ncnn4c3)cc3c2C(c2cc(F)ccc2Cl)NC3=O)C1` (mixture of isomers) [Compound I-1844] was 10 to 100 µM.
`N[C@H]1CCC[C@H](C(=O)Nc2cc(-c3ccc4ncnn4c3)cc3c2C(c2cc(F)ccc2Cl)NC3=O)C1` (mixture of isomers) [Compound I-1845] had an IC50 of 10 to 100 µM.
`O=C1N[C@@H](c2cc(F)ccc2Cl)c2c(NC(=O)[C@H]3CCCNC3)cc(-c3ccc4ncnn4c3)cc21` (racemic) [Compound I-1847] showed an IC50 of 10 to 100 µM.
The value for `O=C1N[C@H](c2cc(F)ccc2Cl)c2c(NC(=O)[C@H]3CCCNC3)cc(-c3ccc4ncnn4c3)cc21` (racemic) [Compound I-1848] was 10 to 100 µM; that for `CC(=O)N[C@H]1CC[C@@H](C(=O)Nc2cc(-c3ccc4ncnn4c3)cc3c2C(c2cc(F)ccc2Cl)NC3=O)CC1` (mixture of isomers) [Compound I-1849] was 10 to 100 µM.
Next, `CC(=O)N[C@H]1CC[C@H](C(=O)Nc2cc(-c3ccc4ncnn4c3)cc3c2C(c2cc(F)ccc2Cl)NC3=O)CC1` (mixture of isomers) [Compound I-1850]: 10 to 100 µM; `O=C1N[C@@H](c2cc(F)ccc2Cl)c2c(NC(=O)[C@H]3C[C@H]3C(F)(F)F)cc(Br)cc21` (racemic) [Compound I-1853]: 10 to 100 µM.
Next, `O=C1N[C@H](c2cc(F)ccc2Cl)c2c(NC(=O)[C@H]3C[C@H]3C(F)(F)F)cc(Br)cc21` (racemic) [Compound I-1854]: 10 to 100 µM; `O=C1N[C@@H](c2cc(F)ccc2Cl)c2c(N[C@H]3COCc4ccccc43)cc(Br)cc21` (racemic) [Compound I-1893]: 10 to 100 µM; `O=C1N[C@@H](c2cc(F)ccc2Cl)c2c(N[C@@H]3COCc4ccccc43)cc(Br)cc21` (racemic) [Compound I-1894]: 10 to 100 µM.
As to `O=C(Nc1cccc2c1[C@H]([C@@H]1COCCN1)NC2=O)c1cc(F)cc(C(F)(F)F)c1` (racemic) [Compound I-1901], the IC50 was 10 to 100 µM.
Next, `O=C(Nc1cccc2c1C(C1CCCCC13CC3)NC2=O)c1cc(F)cc(C(F)(F)F)c1` (racemic) [Compound I-1912]: 1 to 10 µM.
Next, `O=C1NC(c2cc(F)ccc2Cl)c2c(NC(=O)[C@H]3C[C@@H](O)c4ccccc43)cc(Br)cc21` (mixture of isomers) [Compound I-1942]: 10 to 100 µM; `O=C1NC(c2cc(F)ccc2Cl)c2c(NC(=O)[C@H]3C[C@H](O)c4ccccc43)cc(Br)cc21` (mixture of isomers) [Compound I-1943]: 10 to 100 µM; `CN1CCCC[C@H]1C(=O)Nc1cc(-c2ccc3ncnn3c2)cc2c1[C@@H](c1cc(F)ccc1Cl)NC2=O` (racemic) [Compound I-1947]: 10 to 100 µM.
The value for `CN1CCCC[C@H]1C(=O)Nc1cc(-c2ccc3ncnn3c2)cc2c1[C@H](c1cc(F)ccc1Cl)NC2=O` (racemic) [Compound I-1948] was 10 to 100 µM; that for `O=C(Nc1cc(Br)cc2c1[C@H](c1cc(F)ccc1Cl)NC2=O)N[C@]1(CC(F)(F)F)CCCOC1` (racemic) [Compound I-1949] was 10 to 100 µM.
As for `O=C(Nc1cccc2c1C(C1CCCN1)NC2=O)c1cc(F)cc(C(F)(F)F)c1` (racemic) [Compound I-1956], the IC50 lay within 10 to 100 µM.
Next, `O=C(Nc1cccc2c1C(C1CCCOC1)NC2=O)c1cc(F)cc(C(F)(F)F)c1` (racemic) [Compound I-1958]: 10 to 100 µM.

The term IC50 denotes the concentration that gives 50% inhibition. Read a low IC50 as greater potency.

These data come from patent US12581252B2, “Substituted pyrrolo[3,4-b]pyridines as PI3K-α inhibitors” (Relay Therapeutics, Inc., priority 2020, dated 2026).
